Here are results for nine compounds from patent publication US12686665B2, “Bicyclic fused ring derivative or salt thereof and pharmaceutical composition comprising same” (YUHAN CORPORATION, priority 2021, dated 2026).

Format in all cases: biochemical
Test [1] concerns the target T1, recombinant human Lysyl Oxidase-Like 2 (LOXL2) (Homo sapiens, UniProt Q9Y4K0).
T1 construct: purchased R&D systems
T1 sequence (Q9Y4K0 26-774): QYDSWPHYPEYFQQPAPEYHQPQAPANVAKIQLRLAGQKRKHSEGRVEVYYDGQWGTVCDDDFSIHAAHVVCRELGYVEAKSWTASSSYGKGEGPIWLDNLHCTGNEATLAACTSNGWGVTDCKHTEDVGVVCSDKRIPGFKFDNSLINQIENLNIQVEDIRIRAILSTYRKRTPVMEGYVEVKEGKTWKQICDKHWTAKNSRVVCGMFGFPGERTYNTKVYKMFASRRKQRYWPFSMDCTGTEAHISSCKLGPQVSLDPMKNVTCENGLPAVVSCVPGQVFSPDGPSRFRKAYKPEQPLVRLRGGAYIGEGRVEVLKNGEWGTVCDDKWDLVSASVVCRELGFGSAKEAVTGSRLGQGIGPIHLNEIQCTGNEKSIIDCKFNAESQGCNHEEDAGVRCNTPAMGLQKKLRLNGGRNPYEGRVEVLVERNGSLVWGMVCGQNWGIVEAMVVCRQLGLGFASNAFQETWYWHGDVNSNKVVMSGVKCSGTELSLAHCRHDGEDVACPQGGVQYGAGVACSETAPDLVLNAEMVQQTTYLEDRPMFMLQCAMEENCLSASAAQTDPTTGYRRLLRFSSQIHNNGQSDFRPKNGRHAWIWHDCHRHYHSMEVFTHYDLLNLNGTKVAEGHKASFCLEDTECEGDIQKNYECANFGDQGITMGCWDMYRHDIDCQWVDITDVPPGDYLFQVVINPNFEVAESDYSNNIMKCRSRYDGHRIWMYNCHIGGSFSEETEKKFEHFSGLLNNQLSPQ
The experiment in a line: Amplex Red HRP-coupled amine oxidase assay, recombinant human LOXL2. The note with it: 60 min incubation with enzyme at 37° C., putrescine substrate, read-out: Inhibitory activity (IC50, nM) human LOXL2. The procedure, abridged: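 Putrescine substrate (30 mM) in 50 mM sodium phosphate pH 7.4, 37 °C; compounds preincubated 60 min with enzyme, 1% DMSO final, six-point curves. H2O2 detected via 400 μM Amplex Red/2 U/mL HRP, fluorescence (ex 530/em 590 nm) after 1 h; IC50 from four-parameter logistic fit of % signal reduction.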

In test [2] the target is T2, recombinant human MAO-A (monoamine oxidase-A) (Homo sapiens, UniProt P21397).
T2 construct: purchased Sigma-Aldrich
T2 sequence (P21397 1-527): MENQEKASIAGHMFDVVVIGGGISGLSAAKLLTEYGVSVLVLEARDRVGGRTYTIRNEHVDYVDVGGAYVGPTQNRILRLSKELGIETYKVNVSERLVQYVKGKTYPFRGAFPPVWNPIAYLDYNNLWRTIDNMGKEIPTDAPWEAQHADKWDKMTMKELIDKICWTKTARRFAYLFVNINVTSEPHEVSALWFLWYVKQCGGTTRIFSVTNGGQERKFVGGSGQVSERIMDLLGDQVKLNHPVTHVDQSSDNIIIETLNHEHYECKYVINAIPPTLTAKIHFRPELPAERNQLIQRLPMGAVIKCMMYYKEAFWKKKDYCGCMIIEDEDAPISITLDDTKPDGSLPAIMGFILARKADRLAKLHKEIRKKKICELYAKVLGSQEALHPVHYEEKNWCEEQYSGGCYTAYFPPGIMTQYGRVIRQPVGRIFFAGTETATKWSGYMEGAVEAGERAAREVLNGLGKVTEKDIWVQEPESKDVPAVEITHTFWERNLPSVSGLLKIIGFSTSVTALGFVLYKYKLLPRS
The experiment in a line: Amplex Red HRP-coupled amine oxidase assay, recombinant human MAO-A. The conditions noted are these: 0.5 mM tyramine substrate, read-out: Inhibitory activity (IC50, nM) MAO-A. On the procedure: (§1) The activities of the compounds according to the present invention against recombinant human Lysyl Oxidase-Like 2 (recombinant human LOXL2, R&D systems) were evaluated by measuring the levels of hydrogen peroxide in the HRP (horseradish peroxidase) coupled reactions, with the Amplex Red Hydrogen Peroxide Assay Kit (Molecular Probes, Invitrogen, USA). The tests were carried out at 37° C., and putrescine was used as a substrate. In the HRP coupling reaction, the oxidation of 10-acetyl-3,7-dihydroxyphenoxazine (Amplex Red reagent) by hydrogen peroxide generates a fluorescent product, i.e., resorufin. Briefly, the test compounds were dissolved in dimethyl sulfoxide (DMSO) at a concentration of 20 mM. Dose-response measurements were carried out by serial dilutions in DMSO to generate a six-point curve. The upper concentration was adjusted according to the potency of the compound, and then diluted with the reaction buffer to obtain a final DMSO concentration of 1%. Purified human LOXL2 in 50 mM sodium phosphate buffer (pH7.4) was added to each well of a 96 well black plate. The test compounds dissolved in DMSO were incubated with the human LOXL2 enzyme at 37° C. for 60 minutes. After the incubation for 60 minutes, a reaction mixture containing 400 μM Amplex Red reagent, 30 mM putrescine, and 2 U/mL HRP in 50 mM sodium phosphate buffer (pH 7.4) was added to each well. Fluorescence was measured with a microplate reader (Flexstation3, Molecular Devices), under the conditions of excitation at 530 nm and emission at 590 nm, 1 hour after the addition of the mixture. Inhibition by each compound was measured as % reduction in signal, compared to the control without an inhibitor (diluted DMSO only). The data were fixed to a four-variable logistic model, and […] values were calculated using the GraphPad Prism program.
(§2) And, the activities of the compounds according to the present invention against recombinant human MAO-A (monoamine oxidase-A, Sigma-Aldrich) and recombinant human MAO-B (monoamine oxidase-B, Sigma-Aldrich) were evaluated in a similar manner to the activity evaluation method for recombinant human LOXL2, using 0.5 mM tyramine and 1 mM benzylamine as a substrate, respectively. In addition, the activities of the compounds according to the present invention against recombinant human DAO (diamine oxidase, R&D systems) were evaluated in a similar manner to the activity evaluation method for recombinant human LOXL2, using 1 mM putrescine as a substrate.

Test [3] has as its target T3, recombinant human MAO-B (monoamine oxidase-B) (Homo sapiens, UniProt P27338).
T3 construct: purchased Sigma-Aldrich
T3 sequence (P27338 1-520): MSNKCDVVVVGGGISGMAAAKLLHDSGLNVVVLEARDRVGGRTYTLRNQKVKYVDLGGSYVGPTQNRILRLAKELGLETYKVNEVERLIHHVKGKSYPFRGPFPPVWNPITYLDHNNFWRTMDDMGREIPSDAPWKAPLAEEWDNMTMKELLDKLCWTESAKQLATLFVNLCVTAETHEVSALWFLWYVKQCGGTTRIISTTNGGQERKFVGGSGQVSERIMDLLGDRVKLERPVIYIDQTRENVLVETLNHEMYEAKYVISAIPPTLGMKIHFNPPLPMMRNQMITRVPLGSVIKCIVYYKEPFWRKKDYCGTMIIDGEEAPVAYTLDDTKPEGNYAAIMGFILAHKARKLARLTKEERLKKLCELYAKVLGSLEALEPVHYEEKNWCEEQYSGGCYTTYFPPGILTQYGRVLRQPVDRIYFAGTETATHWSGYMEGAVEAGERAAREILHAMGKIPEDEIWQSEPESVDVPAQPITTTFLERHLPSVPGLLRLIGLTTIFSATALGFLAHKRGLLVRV
The experiment in a line: Amplex Red HRP-coupled amine oxidase assay, recombinant human MAO-B. The conditions noted are these: 1 mM benzylamine substrate, read-out: Inhibitory activity (IC50, nM) MAO-B. Here is the method:
as §1, §2

In test [4] the target is T4, recombinant human DAO (diamine oxidase) (Homo sapiens, UniProt P19801).
T4 construct: purchased R&D systems
T4 sequence (P19801 20-751): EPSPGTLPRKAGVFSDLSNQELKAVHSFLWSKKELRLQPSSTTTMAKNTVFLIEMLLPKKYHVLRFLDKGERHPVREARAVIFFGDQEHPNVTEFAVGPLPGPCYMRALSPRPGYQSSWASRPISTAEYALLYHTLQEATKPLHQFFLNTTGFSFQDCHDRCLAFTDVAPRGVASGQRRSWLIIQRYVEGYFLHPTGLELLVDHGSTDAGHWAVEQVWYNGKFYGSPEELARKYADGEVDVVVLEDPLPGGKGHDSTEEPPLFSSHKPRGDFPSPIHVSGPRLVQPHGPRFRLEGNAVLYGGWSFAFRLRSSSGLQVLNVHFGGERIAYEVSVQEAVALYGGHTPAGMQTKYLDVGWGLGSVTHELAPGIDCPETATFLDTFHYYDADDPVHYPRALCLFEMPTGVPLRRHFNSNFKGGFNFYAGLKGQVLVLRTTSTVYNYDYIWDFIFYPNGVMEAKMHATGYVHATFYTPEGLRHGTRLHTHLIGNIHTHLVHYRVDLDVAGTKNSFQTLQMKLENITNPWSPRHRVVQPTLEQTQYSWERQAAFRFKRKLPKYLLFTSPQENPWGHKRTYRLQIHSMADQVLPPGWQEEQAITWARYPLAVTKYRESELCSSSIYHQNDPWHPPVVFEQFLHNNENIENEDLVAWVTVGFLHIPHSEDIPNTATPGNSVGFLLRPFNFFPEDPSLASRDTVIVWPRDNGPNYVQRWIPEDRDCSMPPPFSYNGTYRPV
Nature of the test: Amplex Red HRP-coupled amine oxidase assay, recombinant human DAO. The note with it: 1 mM putrescine substrate, read-out: Inhibitory activity (IC50, nM) DAO. Here is the method:
as §1, §2

Counter-ions that a name gives are not always drawn. Where only a bound is given, the exact number is not on record here.

One may read the IC50 as the midpoint of a concentration-inhibition curve. As to `COC(=O)c1cc(-c2cccc(P(C)(C)=O)c2)c2ncn(C/C(F)=C/CN)c2c1` [Example 38, methyl (Z)-1-(4-amino-2-fluorobut-2-en-1-yl)-4-(3-(dimethylphosphoryl)phenyl)-1H-benzo[d]imidazol-6-carboxylate hydrochloride], the concentration for half-maximal inhibition (IC50) in test [1] was 82.3 nM; in test [2] it was more than 100000 nM; in test [3] it was more than 100000 nM; in test [4], 44500 nM.
`N#Cc1cc(-c2ccn(CCO)n2)c2ncn(C/C(F)=C/CN)c2c1` [Example 195, (Z)—1-(4-amino-2-fluorobut-2-en-1-yl)-4-(1-(2-hydroxyethyl)-1H-pyrazol-3-yl)-1H-benzo[d]imidazol-6-carbonitrile hydrochloride]: the IC50 is 159 nM in test [1], more than 100000 nM in test [2], more than 100000 nM in test [3] and 5560 nM in test [4].
`CCN(CC)S(=O)(=O)c1ccc(OC)c(-c2cc(C(=O)OC)cc3c2nnn3C/C(F)=C/CN)c1` [Example 119, methyl (Z)-1-(4-amino-2-fluorobut-2-en-1-yl)-4-(5-(N,N-diethylsulfamoyl)-2-methoxyphenyl)-1H-benzo[d][1,2,3]triazol-6-carboxylate hydrochloride]: the half-maximal inhibitory concentration (IC50) in test [1] was 47.3 nM; in test [2] it was more than 100000 nM; in test [3], more than 100000 nM; in test [4], 14500 nM.
As for `CC(=O)c1ccc(F)c(-c2cc(C(F)(F)F)cc3c2ncn3C/C(F)=C/CN)c1` [Example 169, (Z)-1-(3-(1-(4-amino-2-fluorobut-2-en-1-yl)-6-(trifluoromethyl)-1H-benzo[d]imidazol-4-yl)-4-fluorophenyl)ethan-1-one hydrochloride], the IC50 in test [1] is 273 nM; in test [2], 26900 nM; in test [3], more than 100000 nM; in test [4], 5400 nM.
On to `CCn1nccc1-c1cc(C#N)cc2c1ncn2C/C(F)=C/CN` [Example 192, (Z)-1-(4-amino-2-fluorobut-2-en-1-yl)-4-(1-ethyl-1H-pyrazol-5-yl)-1H-benzo[d]imidazol-6-carbonitrile hydrochloride], for which the figures for the half-inhibitory concentration (IC50) in test [1], in test [2] and in test [3] were 137 nM, more than 100000 nM and more than 100000 nM, respectively.
`Cn1nccc1-c1cc(C#N)cc2c1ncn2C/C(F)=C/CN` [Example 191, (Z)-1-(4-amino-2-fluorobut-2-en-1-yl)-4-(1-methyl-1H-pyrazol-5-yl)-1H-benzo[d]imidazol-6-carbonitrile hydrochloride]: the half-maximal inhibitory concentration (IC50) in test [1] is 95.5 nM; in test [2], more than 100000 nM; in test [3], more than 100000 nM.
For the compound `N#Cc1cc(-c2cccc(S(=O)(=O)N3CCCC3)c2)c2ncn(C/C(F)=C/CN)c2c1` [Example 181, (Z)-1-(4-amino-2-fluorobut-2-en-1-yl)-4-(3-(pyrrolidin-1-ylsulfonyl)phenyl)-1H-benzo[d]imidazol-6-carbonitrile hydrochloride], the values for the IC50 in test [1], in test [2] and in test [3] were 43.1 nM, more than 100000 nM and more than 100000 nM, respectively.
As to `CN(C)S(=O)(=O)c1cccc(-c2cc(C#N)cc3c2ncn3C/C(F)=C/CN)c1` [Example 182, (Z)-3-(1-(4-amino-2-fluorobut-2-en-1-yl)-6-cyano-1H-benzo[d]imidazol-4-yl)-N,N-dimethylbenzenesulfonamide hydrochloride], the figures for the 50% inhibitory concentration (IC50) in test [1], in test [2] and in test [3] were 28.7 nM, more than 100000 nM and more than 100000 nM, respectively.
On to `CC(=O)c1ccc(F)c(-c2cc(C#N)cc3c2ncn3C/C(F)=C/CN)c1` [Example 184, (Z)-4-(5-acetyl-2-fluorophenyl)-1-(4-amino-2-fluorobut-2-en-1-yl)-1H-benzo[d]imidazol-6-carbonitrile hydrochloride], for which the half-maximal inhibitory concentration (IC50) in test [1] is 99 nM; in test [2] it was more than 100000 nM; in test [3] it was more than 100000 nM.
